Assays:
microglia [1] = assay: Ex vivo TNF-α production by microglia from MPTP-treated FF and Cre animals; format: in vivo, mice; settings: 2-hour ex vivo assay, Day 4
Description: Animals with microglia-specific deletion of Ppargc1a were generated by crossing mice harboring the foxed allele of Ppargc1a (Ppargc1a^LoxP/LoxP) with those expressing Tamoxifen inducible Cre recombinase under the control of Cx3cr1 promoter (Cx3cr1^CreER). To induce Cre-mediated deletion of Ppargc1a in Cx3cr1 expressing cells, Tamoxifen (Sigma) in 200 μl corn oil (50 mg/ml, Sigma) was administered to 3 weeks old (Ppargc1a^LoxP/LoxPCx3cr1^CreER) mice twice at 48-hour intervals (Wolf et al Front Cell Neurosci 2013, 18;7:26. doi: 10.3389/fnce1.2013.00026). Littermates carrying the foxed allele of Ppargc1a alleles but lacking expression of Cre recombinase (Ppargc1a^LoxP/LoxP) were used as controls. Animals were rested for another 5-6 weeks before MPTP was administered. Animals with microglia-specific deletion of Ppargc1a and controls were generated as described in Example 1. […] PBS-perfused brain tissues of sacrificed animals were digested with Collagenase IV and isolated by flow cytometry. For measuring microglial production of TNF-α, MPTP-ZLN (n=5), MPTP-Ctrl (n=10) and Veh (n=6) animals were sacrificed. Isolated microglia were subjected to a 2-hour ex vivo TNF-α production assay. Supernatant samples were collected for TNF-α measurement with CBA technology (BD). […] Unpaired t-tests were used for statistical analyses.

MPTP-treated animals = assay: Nest-building test in MPTP model of PD; format: in vivo, mice; settings: one dose 25 mg/kg
Description: Impaired nest-building skill has been widely used as one of the most reliable indication of motor dysfunction in the MPTP model of […] et al, Behav Brain Res, 125:109-25, 2001). In this test, animals are given cotton pads to be used as nestling, and are tested for their abilities to tear off the cotton pads into small pieces to build a nest; these abilities require fine motor coordination. Animals with microglia-specific deletion of Ppargc1a and controls were generated as described in Example 1. […] Control animals received a similar volume of PBS. Immediately after the last dosage of MPTP, each animal was put in one cage and given two cotton pads to be used in nestling; the appearance of the cotton pads was evaluated 16 hours later. The results are shown in FIG. 7 as weights of shredded nestlets (n=9-10 animals per treatment group). […] MPTP-ZLN animals generated more cotton-debris in comparison to the MPTP-Ctrl group. […] Unpaired t-tests were used for statistical analyses.

[2] = test system: CD115+CD11b+ blood monocytes; assay: Blood monocyte frequency in 5XFAD AD transgenic animals; format: in vivo, mice; settings: 25 mg/kg orally 3 times a week for 4 weeks, 7 weeks of age
Description: AD transgenic animals were orally treated 3 times a week for 4 weeks with 0.5% methylcellulose or ZLN005 (Sigma) at 25 mg/kg in 0.5% methylcellulose, starting at 3 weeks of age. For measuring the frequency of CD115+CD11b+ blood monocytes, 5[…]=5), 5XFAD-Ctrl (n=4), and WT animals (n=4) were sacrificed at 7 weeks of age. The results are summarized in FIG. 14; Y-axis represents % of total circulating monocytes among circulating immune cells. […] ANOVA was used for statistical analysis.

[3] = test system: dopaminergic neurons in the substantia nigra; assay: Immunohistochemical analysis of dopaminergic neurons in MPTP-treated animals; format: in vivo, mice; settings: 25 mg/kg orally once a day for 7 days, Day 8
Description: For protein expression studies, animals were sacrificed on Day 8, 24 hours after the 7th oral dosage of ZLN005, and paraformaldehyde-perfused brain tissues were processed for immunohistochemical analysis of dopaminergic neurons in the substantia nigra. The brown staining represents tyrosine hydroxylase expression in dopaminergic neurons of the substantia nigra.

ALS transgenic mice [4] = assay: Survival of ALS transgenic animals; format: in vivo
Description: ALS transgenic mice were orally treated 3 times a week with 0.5% methylcellulose or ZLN005 (Sigma) at 25 mg/kg in 0.5% methylcellulose, starting at 5, 10 and 15 weeks of age.
Survival of ALS-Ctrl (n=18) and ALS-ZLN mice (n=8) were monitored until all animals succumbed. […] Log-rank test was used for statistical analysis.

ALS transgenic mice [5] = assay: Wheel-running test in ALS transgenic animals; format: in vivo; settings: 25 mg/kg orally 3 times a week for 4 weeks from 9 weeks of age
Description: ALS transgenic mice were orally treated 3 times a week for 4 weeks with 0.5% methylcellulose or ZLN005 (Sigma) at 25 mg/kg in 0.5% methylcellulose, starting at 9 weeks of age. A wheel-running test was performed similarly to that described in Example 8. The animals started training at 13 weeks of age for 1.5 weeks of training on a treadmill at a constant speed of 10 rpm and then for 1.5 weeks of training at an accelerating speed from 5-15 rpm. After the training period at 14.5 and 16 weeks of age, animals were tested for motor performance at a constant speed and at an accelerating speed, respectively. […] Unpaired t-tests were used for statistical analyses.

microglia [6] = assay: Microglia flow cytometry in acute STZ model of AD (TNF-α, ThioltrackerViolet, MitotrackerRed); format: in vivo, mice
Description: To induce symptoms of AD, STZ (3 mg/kg, Sigma) was administered via intracerebral injection ([…] et al, Int J Neurosci, PMID 24494726, 2014). This is a well-established model of the sporadic form of AD. Briefly, animals were anesthetized and STZ solution in 5 μl artificial cerebrospinal fluid (Harvard Apparatus) was injected through the skull with a 50 μl syringe. Control animals received a similar volume of artificial cerebrospinal fluid without STZ. The injections were performed twice, on Day 1 and Day 3. […] Treatment with ZLN005 was continued on a daily schedule until Day 7. […] Microglia were phenotyped with antibodies directed against mouse TNF-α (Biolegend) and metabolic dyes […], and MitotrackerRed (Invitrogen) for flow cytometric acquisition (LSRII, BD) and analysis (FlowJo). […] ANOVA was used for statistical analyses.

Ppargc1a = test system: Ppargc1a
Description: To induce symptoms of PD, MPTP (20 mg/kg) was administered intraperitoneally in sterile PBS 4 times at 2-hour intervals on day 1. […] Log-rank test was used for statistical analysis.
Ppargc1a, an inducer of mitochondrial biogenesis, is widely expressed in cells throughout the body.
For protein expression studies, animals were sacrificed on Day 4, 24 hours after the 3rd oral dosage of ZLN005 and PBS-perfused brain tissues were digested with Collagenase IV, processed for microglia isolation by flow cytometry (Ginhoux et al Science, 330:841-5, 2010), and immunoblot analysis of Ppargc1a expression.

[7] = STZ-treated animals, 25 mg/kg orally daily until Day 7

SMILES: CC(C)(C)c1ccc(-c2nc3ccccc3[nH]2)cc1 [ZLN005, 2-(4-tert-butylphenyl)-1H-benzimidazole]
- TNF-α production in microglia (microglia [1]; MPTP-treated Cre animals (microglial Ppargc1a deletion)): failed to exert its anti-inflammatory effects
- TNF-α production in microglia (microglia [1]; MPTP-treated FF animals): suppressed TNF-α production
- nest-building, weights of shredded nestlets (fine motor skills) (MPTP-treated animals; MPTP-treated Cre animals): present only in FF animals but not in Cre animals
- nest-building, weights of shredded nestlets (fine motor skills) (MPTP-treated animals; MPTP-treated FF animals, evaluated 16 hours later, vs MPTP-Ctrl): marked improvement in their fine motor skills
- percentage of monocytes among circulating immune cells [2]: decreased
- depletion of dopaminergic neurons of the substantia nigra (tyrosine hydroxylase staining) [3]: reversed
- onset of hind limb paralysis (ALS transgenic mice [4]; ALS transgenic mice): delayed
- mean survival (ALS transgenic mice [4]; ALS transgenic, 25 mg/kg orally 3 times a week starting at 5 or 10 weeks of age, p <0.05 vs ALS-Ctrl): 131 to 132 days
- latency to fall (ALS transgenic mice [5]; accelerating speed 5-15 rpm, 16 weeks of age): 243.7 s
- latency to fall (ALS transgenic mice [5]; constant speed 10 rpm, 14.5 weeks of age): 296.3 s
- TNF-α production in microglia (microglia [6]; [7]): suppressed TNF-α production
- mitochondrial potential in microglia (MitotrackerRed) (microglia [6]; [7]): enhanced
- production of glutathione in microglia (ThioltrackerViolet) (microglia [6]; [7]): enhanced
- glycolysis in microglia (microglia [6]; microglia isolated from STZ-treated animals): enhanced glycolysis
- Ppargc1a protein expression in microglia (Ppargc1a; MPTP-treated animals, 25 mg/kg orally, 3 doses, Day 4): enhanced Ppargc1a protein expression in microglia
- blood-brain barrier penetration (Ppargc1a; mouse, in vivo, po, 25 mg/kg): penetrated the blood-brain barrier
